Measurements reported in US10537535B2, “Histone deacetylase inhibitors” (The Regents of the University of California, priority 2015, dated 2020).

Experiments:
pGMR-HTTQ120 flies = conditions: orally-administered, previous studies; cited from earlier work
[1] = test system: gene expression in the antenna of Drosophila melanogaster; experiment: RNA-seq transcriptome analysis of Drosophila antennae after exposure or feeding; type: in vivo; conditions: 5 days; diacetyl 1% headspace, SB/VA 10 mM in food; vs control
From the text: In order to examine the physiological effects of long-term exposure to an odorant, flies were maintained in vials with circulating volatiles from headspace of a low concentration (1% in paraffin oil) of the odorant diacetyl, which acts on a number of different receptor pathways in Drosophila. In a similar manner to previous odor-exposure studies, flies were exposed to diacetyl for 5 days and performed an RNA-seq analysis of the antennae, which are known odor-detecting organs. The transcriptome was compared with a control group of age-matched flies that were exposed to the headspace of the solvent paraffin oil (PO, FIG. 3A).
Flies were exposed to diacetyl (2,3-Butanedione, B85307, Sigma-Aldrich, St. Louis, Mo.) by placing them in vials in a cylindrical closed container (112 mm diameter×151 mm height) along with an odor-containing glass vial. The odorant was dissolved in 10 mL paraffin oil at 1% dilution. For a given exposure protocol, two groups of flies were prepared: those exposed to 1% diacetyl headspace and those exposed to paraffin oil headspace alone (control flies). Adult male flies aged 1 d were transferred to fly vials containing fresh medium, and put into the container with the odor vial. At the end of the fifth day of exposure, flies were collected, and their antennae were dissected for RNA extraction. All treatments and experiments were performed at room temperature. For the recovery experiment, flies were transferred again to the container containing a glass vial of paraffin oil after 5 days of diacetyl exposure. At the end of the fifth day of recovery, flies were collected, and their antennae were dissected for RNA extraction.
Sodium butyrate (B5887, Sigma-Aldrich) or valproic acid (P4543, Sigma-Aldrich) were dissolved in normal fly food medium at the final concentration of 10 mM. Three groups of flies were prepared: those treated with one of the HDAC inhibitors and those without HDAC inhibitor treatment (control flies). Adult flies aged 1 d were transferred to fly vials containing medium with or without a HDAC inhibitor. At the end of the fifth day of treatment, flies were collected, and their antennae were dissected for RNA extraction. All treatments and experiments were performed at room temperature.
The second and third antennal segments from 40-60 male flies after treatment were carefully hand-dissected from the head, collected in 1.5 ml microfuge tubes kept cold in liquid nitrogen. Antennae were mechanically crushed with disposable RNAse-free plastic pestles, and total RNA was isolated using a Trizol-based protocol. cDNA libraries were prepared from total RNA (300-1000 ng/sample) using the Illumina TruSeq RNA Library Preparation Kit (Illumina Catalog #RS-122-2001). Samples were submitted to the UCR IIGB sequencing core for high-throughput sequencing using the Illumina HiSeq2500 platform. Raw reads were aligned to the Drosophila melanogaster reference genome (dmel-all-chromosome-r5.48.fasta) with Tophat2, and a count table of reads overlapping with exonic regions of genes was generated by the UCR bioinformatics core. The numbers of biological replicates are: 2, day 5 paraffin oil; 1, day 5 diacetyl; 2, day 5 mock; 2, day 5 sodium butyrate; 2, day 5 valproic acid; 2, day 10 paraffin oil recovery; 2, day 10 diacetyl recovery.
The read count table for all the genes were then imported into R and a statistical analysis of differential gene expression using the DESeq package (1.22.0) was performed. […] The gene list analysis was performed using the GO Term Mapper (http://go.princeton.edu/) with Generic GO slim datasets, and the Statistical overrepresentation test was performed using the PANTHER classification (http://www.pantherdb.org/) system with GO complete datasets.
This example investigates the overlap among genes modulated by diacetyl as compared to sodium butyrate and valproic acid, which are known HDAC inhibitors. […]

Gr63a = experiment: Whole mount RNA in situ of adult Drosophila antenna Gr63a; type: in vivo; conditions: 5 days; odor 1 1% on filter paper, sodium butyrate 10 mM fed; vs untreated or mock
Experimental: For five days, Drosophila were exposed to 1% diacetyl (odor 1) on filter paper; fed known HDAC inhibitor sodium butyrate (Na-but; 10 mM); or fed known HDAC inhibitor valproic acid (10 mM).

| Structure (SMILES) | photoreceptor degeneration in Huntington's model Drosophila (pGMR-HTTQ120 flies) | number of differentially-expressed genes in antennal transcriptome [1] [genes] | number of genes down-regulated >2-fold [1] [genes] | number of genes up-regulated >2-fold [1] [genes] | Gr63a expression in antenna (RNA in situ) (Gr63a) |
| --- | --- | --- | --- | --- | --- |
| O=C(CCCCCCC(=O)Nc1ccccc1)NO [SAHA, suberoylanilide hydroxamic acid] | significantly reduce photoreceptor degeneration | – | – | – | – |
| CCCC(=O)[O-].[Na+] [sodium butyrate, Sodium butyrate, reference compound] | significantly reduce photoreceptor degeneration | 558 | 366 | 192 | over-expression |
| CCCC(CCC)C(=O)O [valproic acid, reference compound] | – | 940 | 772 | 168 | – |
